pEC50: −log10 of the molar value.
Experiments:
Type in all cases: cell-based
[1] = biological target: T1, Human GPR120 short form (Homo sapiens, UniProt Q5NUL3); experiment: Human GPR120 Calcium Flux Assay, Procedure Calcium A; conditions: HEK-293 cells expressing Human GPR120 short form, FLIPR, 2500 cells / well; read-out: GPR120 Ca^2+ Assay A EC50
T1 construct: expressed in transfected cells
T1 sequence (Q5NUL3 1-361): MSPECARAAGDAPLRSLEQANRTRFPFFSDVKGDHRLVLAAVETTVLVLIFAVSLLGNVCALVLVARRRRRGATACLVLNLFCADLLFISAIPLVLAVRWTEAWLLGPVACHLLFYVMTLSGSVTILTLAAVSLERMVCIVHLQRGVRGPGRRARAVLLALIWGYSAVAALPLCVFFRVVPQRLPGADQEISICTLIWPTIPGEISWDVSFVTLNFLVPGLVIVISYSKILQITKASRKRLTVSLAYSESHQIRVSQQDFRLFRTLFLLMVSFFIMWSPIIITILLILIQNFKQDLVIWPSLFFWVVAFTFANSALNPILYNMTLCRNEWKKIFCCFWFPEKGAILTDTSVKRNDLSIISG
Description: (§1) This in vitro assay serves to assess test compound agonist activity against the short splice variant (SVS with Accession number NM_001195755.1 confirmed by sequencing data) of the GPR120 receptor. The Human Short splice variant #2 (NM_001195755.1) is missing an in-frame coding exon compared to variant 1 (the Human Long splice variant NM_181745.3), resulting in a shorter isoform (GPR120-S) lacking a 16 aa protein segment compared to isoform GPR120-L. The assay platform utilizes HEK-293 cells stably transfected to express the Human GPR120 short form. These cells are first loaded with the Ca^+2 sensitive dye, Fluo-4 NW. Upon stimulation, intracellular released Ca^+2 can bind to the dye and alter its fluorescence intensity. This increase in fluorescence signal, and thus the flux in intracellular [Ca^2+], is detected and quantitated by fluorescence imaging using a FLIPR reader. The effect of the agonist is measured as a function of concentration and used to calculate an EC50 based upon a response curve.
In this procedure 2500 cells / well were employed.
(§2) A Human GPR120 clone (Genbank accession number NM _001195755.1) was placed into the pcDNA3.1 mammalian expression vector carrying the neomycin resistance gene. A stable mammalian cell was generated by placing the above clone into a HEK293 background. Clonal cells responding to long chain fatty acids had expression levels of GPR120 confirmed by RT-qPCR. Human HEK-GPR120 cells were cultured in Dulbecco's Modified Eagle's Medium (DMEM)/F12 medium supplemented with 10% fetal bovine serum (FBS), 1% L-Glutamine and 1% penicillin/streptomycin and 0.5 mg/ml G-418. Cells were split 2 times a week to keep the cells in the log-phase growth.
(§3) In preparation for the assay, HEK cells stably transfected with Human GPR120 (2.5K cells per well in 25uL growth medium) were seeded into 384-well plates and then incubated overnight (37°C, 5% CO2). The next day, the media was changed to 20 µL assay buffer and the cell starved for 1h at 37°C. […]
(§4) The assay was performed on a FLIPR plate reader using the following parameters. Baseline was read for 10 seconds at 1 sec intervals. The program was set to transfer 10µL of ligand from compound plate to cell plate after baseline reading. […] After compound addition, each well was read for 300 sec, with measurements collected at 1 sec intervals.
(§5) The kinetic data from the FLIPR was based upon a 5 minute window for data collection. The fluorescence of each sample well was used for individual calculations of a normalized RFU value, which was defined as maximum response minus the minimum response. The normalized fluorescence reading (RFU) was calculated as follows: RFU = Fmax−Fmin [formula] […]

[2] = biological target: T1, Human GPR120 short form; experiment: Human GPR120 Calcium Flux Assay, Procedure Calcium B; conditions: HEK-293 cells expressing Human GPR120 short form, FLIPR, 4200 cells/well; read-out: GPR120 Ca^2+ Assay B EC50
Description: as §1
In this procedure 4200 cells/well were employed.
as §2, §3, §4, §5

[3] = biological target: T2, short form of the GPR120 receptor (Homo sapiens, UniProt Q5NUL3); experiment: Human GPR120 DiscoveRx PathHunter Beta-Arrestin assay, Procedure β-arrestin B; conditions: PathHunter CHO-K1 GPR120S β-Arrestin Cell Line, 5000 cells/well, read-out: hGPR120 β-arrestin B EC50
T2 construct: host or cells: PathHunter CHO-K1 GPR120S β-Arrestin Cell Line
T2 sequence (Q5NUL3 1-361): T1 sequence (Q5NUL3 1-361)
Description: The binding of an agonist (medium/long chain fatty acids or small molecule agonists) to the G-protein-coupled receptor GPR120 activates phospholipase C, leading to release of intracellular Ca^+2 through the generation of inositol 1,4,5-trisphosphate (InsP3 or IP3). GPR120 activation can also trigger intracellular signaling via recruitment of Beta-Arrestin. In the present method, agonist-induced activation of the human GPR120 receptor is monitored through the use of PathHunter CHO-K1 GPR120 Beta-Arrestin Cell Line engineered by DiscoveRx, as detailed below. The cell lines are designed to co-express both the ProLink/Enzyme Donor (PK)-tagged GPCR and the Enzyme […] (EA)-tagged Beta-Arrestin fusion proteins. Upon GPR120 receptor stimulation / activation, the EA-tagged Beta-Arrestin portion is translocated to the tagged receptor, where the two enzyme fragments are brought within close proximity.
Under these conditions, these fragments can interact and form an active Beta-gal enzyme complex through Enzyme Fragment Complementation (EFC). This active Beta-gal complex can enzymatically hydrolyse the substrate to produce a detectable light signal; therefore, activation as a function of agonist concentration can be expressed as an EC50 value to determine relative compound activities. This in vitro assay therefore serves to assess compound agonist activity of the GPR120.
In Procedure β-arrestin B the cells used were PathHunter CHO-K1 GPR120S β-Arrestin Cell Line, expressing the short form of the GPR120 receptor (Accession #NM_181745), with 5000 cells/well. […]
The plates were read on an EnVision instrument, using Protocol name: Luminescence, Plate type: 384 Costar, Measurement height: 3 mm, Measurement time: 1s, Aperture: 384 Plate aperture. The %activity relative to the positive control was calculated using the following equation: %Activity = (Countcompound −Countvehicle)/(Countpostivite control −Countvehicle) × 100% [formula] […]

pEC50 [1] | pEC50 [2] | pEC50 [3] | SMILES
6.90 | – | – | O=C(O)CCc1cc(F)c(OCc2c(-c3ccc(F)c(F)c3)nsc2C(F)(F)F)c(F)c1 [Cpd 129, 3-(4-((3-(3,4-difluorophenyl)-5-(trifluoromethyl)isothiazol-4-yl)methoxy)-3,5-difluorophenyl)propanoic acid]
5.63 | – | – | Cc1ccccc1-c1snc(Cl)c1COc1cc(C(F)(F)F)c(CCC(=O)O)cc1F [Cpd 246, 3-(4-((3-chloro-5-(o-tolyl)isothiazol4-yl)methoxy)-5-fluoro-2-(trifluoromethyl)phenyl)propanoic acid]
– | < 5.30 | – | COC(=O)CCc1cc(F)c(OCc2c(-c3ccc(Cl)cc3F)nsc2C(F)(F)F)c(F)c1 [Cpd 263, Methyl 3-(4-{[3-(4-chloro-2-fluorophenyl)-5-(trifluoromethyl)isothiazol-4-yl]methoxy}-3,5-difluorophenyl)propanoate]
– | 6.56 | 6.28 | COc1cnc(-c2nsc(C(F)(F)F)c2COc2c(F)cc(CCC(=O)O)cc2F)s1 [Cpd 267, 3-(3,5-difluoro-4-((3-(5-methoxythiazol-2-yl)-5-(trifluoromethyl)isothiazol-4-yl)methoxy)phenyl)propanoic acid]
– | 6.33 | 6.35 | COc1cnc(-c2nsc(C(F)(F)F)c2COc2ccc(CCC(=O)O)c(C)c2C)s1 [Cpd 268, 3-(4-((3-(5-methoxythiazol-2-yl)-5-(trifluoromethyl)isothiazol-4-yl)methoxy)-2,3-dimethylphenyl)propanoic acid]
– | 6.71 | 6.17 | Cc1c(CCC(=O)O)ccc(OCc2c(-c3ncc(Cl)s3)nsc2C(F)(F)F)c1C [Cpd 269, 3-(4-((3-(5-chlorothiazol-2-yl)-5-(trifluoromethyl)isothiazol-4-yl)methoxy)-2,3-dimethylphenyl)propanoic acid]

— patent EP3409671B1, “ISOTHIAZOLE DERIVATIVES AS GPR120 AGONISTS FOR THE TREATMENT OF TYPE II DIABETES” (Janssen Pharmaceutica NV, priority 2014, dated 2015)
